Laboratory results: PubChem BioAssay (NCI)
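How tested: cells in 96-well plates exposed to compound for 48 hours at five concentrations. The concentration for 50% growth inhibition is given as GI50. TGI denotes the concentration required for complete inhibition of growth.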

Key:
Experiment in all cases: NCI-60 cell line screen, 48 h
HOP-62 NSCLC = test system: HOP-62 NSCLC
T-47D breast = test system: T-47D breast
MDA-MB-231 breast = test system: MDA-MB-231 breast
OVCAR-5 ovarian = test system: OVCAR-5 ovarian
CCRF-CEM leukemia = test system: CCRF-CEM leukemia
NCI-H226 lung = test system: NCI-H226 lung
NCI-H460 lung = test system: NCI-H460 lung
M14 melanoma = test system: M14 melanoma
NCI/ADR-RES ovarian = test system: NCI/ADR-RES ovarian
SR leukemia = test system: SR leukemia

Compound | GI50 (HOP-62 NSCLC) [µM] | TGI (HOP-62 NSCLC) [µM] | GI50 (T-47D breast) [µM] | TGI (T-47D breast) [µM] | GI50 (MDA-MB-231 breast) [µM] | TGI (MDA-MB-231 breast) [µM] | GI50 (OVCAR-5 ovarian) [µM] | TGI (OVCAR-5 ovarian) [µM] | GI50 (CCRF-CEM leukemia) [µM] | TGI (CCRF-CEM leukemia) [µM] | GI50 (NCI-H226 lung) [µM] | TGI (NCI-H226 lung) [µM] | GI50 (NCI-H460 lung) [µM] | TGI (NCI-H460 lung) [µM] | GI50 (M14 melanoma) [µM] | TGI (M14 melanoma) [µM] | GI50 (NCI/ADR-RES ovarian) [µM] | TGI (NCI/ADR-RES ovarian) [µM] | GI50 (SR leukemia) [µM] | TGI (SR leukemia) [µM]
CC(C)(/C=C(\C#N)C(=O)N1CCC[C@@H](n2nc(-c3ccc(Oc4ccccc4)cc3F)c3c(N)ncnc32)C1)N1CCN(C2COC2)CC1 | 10.1 | 25.7 | 4.77 | 29.5 | 10.2 | 27.7 | 11.3 | 24.1 | 5.69 | > 100 | 4.3 | 21.1 | 6.3 | 20.8 | 4.82 | 18.8 | 14.7 | 43.7 |  | 
Clc1cc2c(c(CSc3nc4ccccc4n4cccc34)c1)OCOC2 | 10.3 | 31.8 | 0.596 | 9.33 | 12.7 | > 100 | > 100 | > 100 | > 100 | > 100 | 14.3 | > 100 | > 100 | > 100 | > 100 | > 100 | 61 | > 100 | > 100 | > 100
CCN1CCN(c2cc(C)c3cc(NC(=O)c4ccc(OC)c(OC)c4)ccc3n2)CC1 | > 37 | > 57.7 | > 39 | > 100 | 11.2 | > 100 | 15.7 | > 100 | > 43.1 | > 100 | > 54.7 | > 100 | 10.5 | 31.3 | 8.88 | > 100 | > 49.1 | > 100 | 1.44 | > 30.5
NNC(=O)CNc1cccc(Br)c1 |  | > 100 |  | > 100 |  | > 100 |  | > 100 |  |  |  | > 100 |  | > 100 |  | > 100 |  | > 100 |  | > 100
O=C(Cc1ccc(F)c(Cl)c1)Nc1cc(C2(C(F)(F)F)CC2)nn1CC1CCCCC1 | 3.96 | > 15 | 3.78 | 13.6 | 2.82 | 6.68 | 4.44 | > 15 | 4.72 | > 15 | 4.32 | > 15 | 3.28 | 8.41 | 4.3 | > 15 | 3.88 | > 15 | 3.73 | 11.4
CN1CCN(c2ccc(Nc3cc(-c4cccc(-n5ccc6cc(C7CC7)cc(F)c6c5=O)c4CO)cn(C)c3=O)nc2)CC1 | 3.97 | 20.7 | 3.04 | 15.9 | 2.26 | 6.17 | 2.82 | 9.75 | 2.19 | 7.73 | 10.2 | 30.1 | 3.83 | 15.7 | 2.69 | 8.19 | 8.03 | 33.4 | 1.79 | 5.27
